Source: patent US11236069B2, “KIF18A inhibitors” (AMGEN INC., priority 2018, dated 2022)
Read-outs that look alike come from different tables or passages of the source.

Molecular target: Recombinant human KIF18A (1-467 His-tagged) protein (Homo sapiens (Human), UniProt Q8NI77)
Test: KIF18A Enzyme Assay: microtubule-stimulated ATPase activity (ADP-Glo)
Details: read-out: KIF18A ATPase IC50
[1] = 30 nM KIF18A, 30 μg/mL pig microtubules, ATP at Km 75 μM, ADP-Glo luminescence

Sequence of Recombinant human KIF18A (1-467 His-tagged) protein (Q8NI77 1-467): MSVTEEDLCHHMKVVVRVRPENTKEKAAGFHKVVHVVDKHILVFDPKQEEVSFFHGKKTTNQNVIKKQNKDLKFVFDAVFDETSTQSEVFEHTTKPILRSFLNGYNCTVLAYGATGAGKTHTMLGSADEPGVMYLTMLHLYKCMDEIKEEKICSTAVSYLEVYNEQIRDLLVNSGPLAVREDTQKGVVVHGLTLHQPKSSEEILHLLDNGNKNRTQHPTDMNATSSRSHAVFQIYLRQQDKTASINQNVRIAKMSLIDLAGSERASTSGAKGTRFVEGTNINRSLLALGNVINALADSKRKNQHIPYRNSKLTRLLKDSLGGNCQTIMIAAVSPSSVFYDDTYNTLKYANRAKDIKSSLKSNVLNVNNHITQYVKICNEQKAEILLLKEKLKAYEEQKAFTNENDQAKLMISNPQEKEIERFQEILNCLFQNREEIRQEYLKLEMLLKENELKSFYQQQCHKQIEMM
Sequence of Recombinant human KIF18A (1-467 His-tagged) protein (P02550 whole entry partner): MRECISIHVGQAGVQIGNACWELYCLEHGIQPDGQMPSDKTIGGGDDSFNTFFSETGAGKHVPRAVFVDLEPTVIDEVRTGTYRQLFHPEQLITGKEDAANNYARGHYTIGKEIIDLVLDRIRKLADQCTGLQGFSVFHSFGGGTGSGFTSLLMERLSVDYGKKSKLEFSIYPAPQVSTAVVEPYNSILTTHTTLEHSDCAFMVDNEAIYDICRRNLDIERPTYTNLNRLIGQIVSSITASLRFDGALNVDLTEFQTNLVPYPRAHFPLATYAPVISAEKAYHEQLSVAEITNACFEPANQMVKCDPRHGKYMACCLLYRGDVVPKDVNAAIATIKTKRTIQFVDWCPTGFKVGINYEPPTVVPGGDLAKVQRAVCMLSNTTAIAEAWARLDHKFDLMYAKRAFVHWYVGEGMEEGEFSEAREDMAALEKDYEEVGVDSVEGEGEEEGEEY
Sequence of Recombinant human KIF18A (1-467 His-tagged) protein (P02554 whole entry partner): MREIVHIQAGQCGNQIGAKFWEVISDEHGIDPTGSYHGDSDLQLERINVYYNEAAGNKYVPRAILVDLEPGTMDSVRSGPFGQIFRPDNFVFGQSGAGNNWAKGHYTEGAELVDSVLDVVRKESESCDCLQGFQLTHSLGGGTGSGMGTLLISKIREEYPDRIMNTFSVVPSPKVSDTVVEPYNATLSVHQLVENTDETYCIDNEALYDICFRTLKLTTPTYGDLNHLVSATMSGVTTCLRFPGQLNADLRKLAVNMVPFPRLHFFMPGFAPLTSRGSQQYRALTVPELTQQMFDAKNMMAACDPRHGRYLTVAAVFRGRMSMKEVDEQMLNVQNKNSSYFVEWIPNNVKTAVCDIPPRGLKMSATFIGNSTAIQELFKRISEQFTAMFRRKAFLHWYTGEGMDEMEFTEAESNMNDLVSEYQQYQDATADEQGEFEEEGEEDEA
Excerpt: KIF18A Enzyme Assay: Microtubule-stimulated ATPase activity assay is used to measure KIF18A enzyme activity after treatment with compound. Compounds were 2-fold serially diluted in DMSO (Sigma Inc) over 22-point concentration range. […] The assay measures ADP formed from the ATPase reaction.

SMILES | IC50 [1] | IC50
CC(C)(O)c1cc(NC(=O)c2ccc(NS(=O)(=O)CCO)cc2N2CCC3(CC2)CC3)nc(N2CCC(F)(F)CC2)n1 [Example 6-37, N-(2-(4,4-Difluoropiperidin-1-yl)-6-(2-hydroxypropan-2-yl)pyrimidin-4-yl)-4-((2-hydroxyethyl)sulfonamido)-2-(6-azaspiro[2.5]octan-6-yl)benzamide] | 125 nM | –
Cc1cc(NC(=O)c2ccc(S(C)(=O)=O)cc2N2CCC3(CC2)CC3)nc(N[C@@H](C)CO)n1 [Example 1-2, (S)-N-(2-((1-Hydroxypropan-2-yl)amino)-6-methylpyrimidin-4-yl)-4-(methylsulfonyl)-2-(6-azaspiro[2.5]octan-6-yl)benzamide] | 491 nM | –
Cc1cc(NC(=O)c2ccc(S(=O)(=O)C(C)(C)C)cc2N2CCC3(CC2)CC3)nc(N2CCC(F)(F)CC2)n1 [Example 14-6, 4-(tert-Butylsulfonyl)-N-(2-(4,4-difluoropiperidin-1-yl)-6-methylpyrimidin-4-yl)-2-(6-azaspiro[2.5]octan-6-yl)benzamide] | 1880 nM | –
Cc1cc(NC(=O)c2ccc(NS(=O)(=O)CCO)cc2N2CCC3(CC2)CC3)nc(N2CC3(COC3)C2)n1 [Example 11-8, 4-((2-Hydroxyethyl)sulfonamido)-N-(6-methyl-2-(2-oxa-6-azaspiro[3.3]heptan-6-yl)pyrimidin-4-yl)-2-(6-azaspiro[2.5]octan-6-yl)benzamide] | 640 nM | –
Cc1cc(NC(=O)c2ccc(NS(=O)(=O)CCO)cc2N2CCC3(CC2)CC3)nc(N2CCC[C@@](C)(F)C2)n1 [Example 11-55, (R)-N-(2-(3-Fluoro-3-methylpiperidin-1-yl)-6-methylpyrimidin-4-yl)-4-((2-hydroxyethyl)sulfonamido)-2-(6-azaspiro[2.5]octan-6-yl)benzamide] | 41 nM | –
Cc1cc(NC(=O)c2ccc(NS(=O)(=O)CF)cc2N2CCC3(CC2)CC3)nc(N2CCC(F)(F)CC2)n1 [Example 6-2, N-(2-(4,4-Difluoropiperidin-1-yl)-6-methylpyrimidin-4-yl)-4-((fluoromethyl)sulfonamido)-2-(6-azaspiro[2.5]octan-6-yl)benzamide] | 42 nM | –
Cc1cc(NC(=O)c2ccc(NS(=O)(=O)C(C)(C)CO)cc2N2CCC3(CC2)CC3)nc(N2CCC(F)(F)CC2)n1 [Example 6-20, N-(2-(4,4-Difluoropiperidin-1-yl)-6-methylpyrimidin-4-yl)-4-((2-hydroxy-1,1-dimethylethyl)sulfonamido)-2-(6-azaspiro[2.5]octan-6-yl)benzamide] | 49 nM | –
Cc1cc(NC(=O)c2ccc(NS(=O)(=O)C[C@H](C)O)cc2N2CCC3(CC2)CC3)nc(N2CCC(F)(F)CC2)n1 [Example 6-32-2, (S)-N-(2-(4,4-Difluoropiperidin-1-yl)-6-methylpyrimidin-4-yl)-4-((2-hydroxypropyl)sulfonamido)-2-(6-azaspiro[2.5]octan-6-yl)benzamide] | 141 nM | –
O=C(Nc1ccnc(OCCC(F)(F)F)c1)c1ccc(NS(=O)(=O)CCO)cc1N1CCC2(CC1)CC2 [Example 11-59, 4-((2-Hydroxyethyl)sulfonamido)-2-(6-azaspiro[2.5]octan-6-yl)-N-(2-(3,3,3-trifluoropropoxy)pyridin-4-yl)benzamide] | 58 nM | –
CCS(=O)(=O)Nc1ccc(C(=O)Nc2cc(C)nc(N3CCC(F)CC3)n2)c(N2CCC3(CC2)CC3)c1 [Example 11-82, 4-(Ethylsulfonamido)-N-(2-(4-fluoropiperidin-1-yl)-6-methylpyrimidin-4-yl)-2-(6-azaspiro[2.5]octan-6-yl)benzamide] | 51 nM | –
Cc1cc(NC(=O)c2ccc(NS(=O)(=O)CCO)cc2N2CCC3(CC2)CC3)nc(C2CC2)n1 [Example 11-3, N-(2-Cyclopropyl-6-methylpyrimidin-4-yl)-4-((2-hydroxyethyl)sulfonamido)-2-(6-azaspiro[2.5]octan-6-yl)benzamide] | 49 nM | –
Cc1cc(NC(=O)c2ccc(NS(=O)(=O)CF)cc2N2CCC3(CC2)CC3)nc(N2CCC(F)CC2)n1 [Example 6-1, 4-((Fluoromethyl)sulfonamido)-N-(2-(4-fluoropiperidin-1-yl)-6-methylpyrimidin-4-yl)-2-(6-azaspiro[2.5]octan-6-yl)benzamide] | 62 nM | –
COCCS(=O)(=O)Nc1ccc(C(=O)Nc2cc(C)nc(N3CCC(F)(F)CC3)n2)c(N2CCC3(CC2)CC3)c1 [Example 6-17, N-(2-(4,4-Difluoropiperidin-1-yl)-6-methylpyrimidin-4-yl)-4-((2-methoxyethyl)sulfonamido)-2-(6-azaspiro[2.5]octan-6-yL)benzamide] | 32 nM | –
Cc1cc(NC(=O)c2ccc(NS(=O)(=O)[C@@H](C)CO)cc2N2CCC3(CC2)CC3)nc(N2CC(F)(F)C2)n1 [Example 11-77, (S)-N-(2-(3,3-Difluoroazetidin-1-yl)-6-methylpyrimidin-4-yl)-4-((2-hydroxy-1-methylethyl)sulfonamido)-2-(6-azaspiro[2.5]octan-6-yl)benzamide] | 34 nM | –
Cc1cc(NC(=O)c2ccc(NS(=O)(=O)C3(CO)CC3)cc2N2CCC3(CC2)CC3)nc(N2CC(F)(F)C2)n1 [Example 11-68, N-(2-(3,3-Difluoroazetidin-1-yl)-6-methylpyrimidin-4-yl)-4-((1-(hydroxymethyl)cyclopropane)-1-sulfonamido)-2-(6-azaspiro[2.5]octan-6-yl)benzamide] | 53 nM | –
O=C(Nc1cc(C2CC2)nc(N2CCC(F)(F)CC2)n1)c1ccc(NS(=O)(=O)CCO)cc1N1CCC2(CC1)CC2 [Example 6-39, N-(6-Cyclopropyl-2-(4,4-difluoropiperidin-1-yl)pyrimidin-4-yl)-4-((2-hydroxyethyl)sulfonamido)-2-(6-azaspiro[2.5]octan-6-yl)benzamide] | 225 nM | –
O=C(Nc1ccnc(N2CC(F)(F)C2)n1)c1ccc(NS(=O)(=O)CCO)cc1N1CCC2(CC1)CC2 [Example 11-7, N-(2-(3,3-Difluoroazetidin-1-yl)pyrimidin-4-yl)-4-((2-hydroxyethyl)sulfonamido)-2-(6-azaspiro[2.5]octan-6-yl)benzamide] | 23 nM | –
Cc1cc(NC(=O)c2ccc(NS(=O)(=O)CCO)cc2N2CCC3(CC2)CC3)nc(N2CCC(F)(F)C2)n1 [Example 11-30, N-(2-(3,3-Difluoropyrrolidin-1-yl)-6-methylpyrim-4-yl)-4-((2-hydroxyethyl)sulfonamido)-2-(6-azaspiro[2.5]octan-6-yl)benzamide] | 33 nM | –
Cc1cc(NC(=O)c2ccc(NS(=O)(=O)[C@@H](C)CO)cc2N2CCC3(CC2)CC3)nc(N2CCC(F)(F)CC2)n1 [Example 5-2, (S)-N-(2-(4,4-Difluoropiperidin-1-yl)-6-methylpyrimidin-4-yl)-4-((2-hydroxy-1-methylethyl)sulfonamido)-2-(6-azaspiro[2.5]octan-6-yl)benzamide] | – | 70 nM
Cc1cc(NC(=O)c2ccc(NS(=O)(=O)C(C)(C)C)cc2N2CCC3(CC2)CC3)nc(N2CC(F)(F)C2)n1 [Example 11-83, N-(2-(3,3-Difluoroazetidin-1-yl)-6-methylpyrimidin-4-yl)-4-((1,1-dimethylethyl)sulfonamido)-2-(6-azaspiro[2.5]octan-6-yl)benzamide] | 98 nM | –
COc1cc(C(=O)Nc2cc(C)nc(N3CCC(F)(F)CC3)n2)c(N2CCC3(CC2)CC3)cc1NS(=O)(=O)CCO [Example 6-36, N-(2-(4,4-Difluoropiperidin-1-yl)-6-methylpyrimidin-4-yl)-4-((2-hydroxyethyl)sulfonamido)-5-methoxy-2-(6-azaspiro[2.5]octan-6-yl)benzamide] | 114 nM | –
Cc1cc(NC(=O)c2ccc(NS(=O)(=O)[C@H](C)CO)cc2N2CCC3(CC2)CC3)nc(N2CCC(F)CC2)n1 [Example 6-25-2, (R)-N-(2-(4-Fluoropiperidin-1-yl)-6-methylpyrimidin-4-yl)-4-((2-hydroxy-1-methylethyl)sulfonamido)-2-(6-azaspiro[2.5]octan-6-yl)benzamide] | 41 nM | –
Cc1cc(NC(=O)c2ccc(NS(=O)(=O)[C@H](CO)CF)cc2N2CCC3(CC2)CC3)nc(N2CCC(F)(F)CC2)n1 [Example 16-1, (R)-N-(2-(4,4-Difluoropiperidin-1-yl)-6-methylpyrimidin-4-yl)-4-((2-fluoro-1-(hydroxymethyl)ethyl)sulfonamido)-2-(6-azaspiro[2.5]octan-6-yl)benzamide] | 89 nM | –
C[C@H]1CN(c2nccc(NC(=O)c3ccc(NS(=O)(=O)CCO)cc3N3CCC4(CC3)CC4)n2)CCO1 [Example 11-1, (S)-4-((2-Hydroxyethyl)sulfonamido)-N-(2-(2-methylmorpholino)pyrimidin-4-yl)-2-(6-azaspiro[2.5]octan-6-yl)benzamide] | 37 nM | –
C[C@@H]1CN(c2nccc(NC(=O)c3cc(F)c(NS(=O)(=O)CCO)cc3N3CCC4(CC3)CC4)n2)CCO1 [Example 9-1, (R)-5-Fluoro-4-((2-hydroxyethyl)sulfonamido)-N-(2-(2-methylmorpholino)pyrimidin-4-yl)-2-(6-azaspiro[2.5]octan-6-yl)benzamide] | 78 nM | –
Cc1cc(NC(=O)c2ccc(S(=O)(=O)[C@@H]3COC[C@H]3O)cc2N2CCC3(CC2)CC3)nc(N2CCC(F)(F)CC2)n1 [Example 14-7, N-(2-(4,4-Difluoropiperidin-1-yl)-6-methylpyrimidin-4-yl)-4-(((3R,4R)-4-hydroxytetrahydrofuran-3-yl)sulfonyl)-2-(6-azaspiro[2.5]octan-6-yl)benzamide] | 94 nM | –
Cc1cc(NC(=O)c2ccc(NS(=O)(=O)CCO)cc2N2CCC(C)(C)CC2)nc(N2CCC(F)(F)CC2)n1 [Example 11-41, N-(2-(4,4-Difluoropiperidin-1-yl)-6-methylpyrimidin-4-yl)-2-(4,4-dimethylpiperidin-1-yl)-4-((2-hydroxyethyl)sulfonamido)benzamide] | 127 nM | –
Cc1cc(NC(=O)c2ccc(NS(=O)(=O)CCO)cc2N2CCC3(CC2)CC3)nc(N2CC(O)(C(F)(F)F)C2)n1 [Example 11-18, N-(2-(3-Hydroxy-3-(trifluoromethyl)azetidin-1-yl)-6-methylpyrimidin-4-yl)-4-((2-hydroxyethyl)sulfonamido)-2-(6-azaspiro[2.5]octan-6-yl)benzamide] | 64 nM | –
